From ChEMBL document CHEMBL1201862, “PubChem BioAssay data set” (2004)
Activity calls are given as the source filed them.

Experiments:
[1] = luciferase reporter signal suppression in cells – H4 neuroglioma cells, luminescence, dose response (AID 1990); assay type: functional, cell-based
[2] = off-target signal loss in HeLa-CEM21 co-culture – HeLa F-luc CTL cells, cherry-picked, counter-screen for HIV-1 Env fusion inhibitor project, dose response (AID 652040); assay type: functional, cell-based;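 also: potency for signal decrease marking cytotoxic or nonspecific inhibition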
[3] = Luminescence Cell-Based Dose Response HTS to Identify Inhibitors of 5'UTR Stem-Loop Driven Prion Protein mRNA Translation in H4 Neuroglioblastoma Cells. [Related pubchem assays: 1827 (Project Summary), 1813 (Primary HTS)]; assay type: functional
[4] = alpha-synuclein stem-loop luciferase translation blockers – H4 neuroglioma cells, luminescence, confirmation (AID 1988); assay type: functional, cell-based
[5] = molecular target: DNA dC->dU-editing enzyme APOBEC-3G (Homo sapiens, UniProt Q9HC16); test: Dose Response confirmation of small molecule APOBEC3G DNA Deaminase Inhibitors via a fluorescence-based single-stranded DNA deaminase assay. [Related pubchem assays (depositor defined):AID493012, AID493028]; assay type: functional
DNA dC->dU-editing enzyme APOBEC-3G, sequence (Q9HC16 whole entry): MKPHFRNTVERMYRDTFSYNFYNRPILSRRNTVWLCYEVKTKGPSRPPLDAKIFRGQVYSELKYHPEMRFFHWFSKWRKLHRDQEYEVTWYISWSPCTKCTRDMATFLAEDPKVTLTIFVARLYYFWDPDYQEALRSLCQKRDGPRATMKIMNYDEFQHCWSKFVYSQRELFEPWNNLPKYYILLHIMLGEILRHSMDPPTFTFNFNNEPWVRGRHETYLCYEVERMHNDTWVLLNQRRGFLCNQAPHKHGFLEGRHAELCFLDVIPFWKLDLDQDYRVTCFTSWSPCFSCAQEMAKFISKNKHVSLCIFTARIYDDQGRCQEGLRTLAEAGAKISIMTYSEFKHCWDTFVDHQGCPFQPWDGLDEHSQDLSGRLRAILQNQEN

[6] = molecular target: T1, Luciferin 4-monooxygenase (Photinus pyralis, UniProt P08659); test: inhibition of purified Photinus pyralis luciferase – biochemical, luminescence, dose response (AID 1891)
T1 sequence (P08659 whole entry): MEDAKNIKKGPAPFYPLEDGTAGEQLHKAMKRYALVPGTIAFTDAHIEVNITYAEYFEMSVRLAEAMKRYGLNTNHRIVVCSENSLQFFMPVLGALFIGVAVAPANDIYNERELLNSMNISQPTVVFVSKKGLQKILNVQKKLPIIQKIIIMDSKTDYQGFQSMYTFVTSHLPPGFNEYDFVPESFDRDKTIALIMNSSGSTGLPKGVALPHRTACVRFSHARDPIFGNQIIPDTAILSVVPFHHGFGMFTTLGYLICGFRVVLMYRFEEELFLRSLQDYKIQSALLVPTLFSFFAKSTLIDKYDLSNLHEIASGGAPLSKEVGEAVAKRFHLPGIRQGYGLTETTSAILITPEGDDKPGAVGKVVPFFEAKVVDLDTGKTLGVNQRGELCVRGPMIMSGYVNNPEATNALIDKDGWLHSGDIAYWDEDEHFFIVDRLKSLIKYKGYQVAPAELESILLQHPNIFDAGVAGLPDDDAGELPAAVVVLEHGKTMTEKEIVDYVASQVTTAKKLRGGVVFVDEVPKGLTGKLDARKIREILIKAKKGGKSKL

[7] = molecular target: Glucose-6-phosphate 1-dehydrogenase (Homo sapiens, UniProt P11413); test: inhibition of Homo sapiens G6PD, dose series – biochemical, fluorescence, selectivity assay for P. falciparum G6PD inhibitor project, dose response (AID 504792); assay type: functional
Glucose-6-phosphate 1-dehydrogenase, sequence (P11413 whole entry): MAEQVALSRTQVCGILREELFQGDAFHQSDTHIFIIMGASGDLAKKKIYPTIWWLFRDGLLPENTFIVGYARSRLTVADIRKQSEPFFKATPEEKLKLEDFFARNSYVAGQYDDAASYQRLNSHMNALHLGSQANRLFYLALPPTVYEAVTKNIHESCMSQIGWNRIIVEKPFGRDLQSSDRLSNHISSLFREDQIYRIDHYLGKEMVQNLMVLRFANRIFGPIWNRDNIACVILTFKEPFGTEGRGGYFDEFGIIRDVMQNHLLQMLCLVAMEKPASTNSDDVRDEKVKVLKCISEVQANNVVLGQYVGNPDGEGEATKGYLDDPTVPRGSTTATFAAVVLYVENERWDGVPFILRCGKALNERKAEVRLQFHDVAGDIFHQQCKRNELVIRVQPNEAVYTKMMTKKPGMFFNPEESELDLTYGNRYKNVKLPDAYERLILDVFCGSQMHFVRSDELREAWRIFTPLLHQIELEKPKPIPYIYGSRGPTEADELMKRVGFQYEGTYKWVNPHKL

[8] = molecular target: DNA dC->dU-editing enzyme APOBEC-3A (Homo sapiens, UniProt P31941); test: A3A deaminase inhibition for selectivity – biochemical, dose response (AID 504722); assay type: functional
DNA dC->dU-editing enzyme APOBEC-3A, sequence (P31941 whole entry): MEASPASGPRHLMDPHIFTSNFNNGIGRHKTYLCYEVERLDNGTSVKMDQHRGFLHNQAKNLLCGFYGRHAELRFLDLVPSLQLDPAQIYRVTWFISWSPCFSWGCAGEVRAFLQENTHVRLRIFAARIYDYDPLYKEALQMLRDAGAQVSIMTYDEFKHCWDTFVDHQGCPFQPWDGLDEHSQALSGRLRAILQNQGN

[9] = molecular target: Eukaryotic translation initiation factor 4E (Mus musculus, UniProt P63073); test: blockers of eIF4G binding by eIF4E – biochemical, TR-FRET, dose response (AID 855); assay type: functional;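 also: potency for disrupting eIF4E binding to eIF4GI seen as loss of FRET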
Eukaryotic translation initiation factor 4E, sequence (P63073 whole entry): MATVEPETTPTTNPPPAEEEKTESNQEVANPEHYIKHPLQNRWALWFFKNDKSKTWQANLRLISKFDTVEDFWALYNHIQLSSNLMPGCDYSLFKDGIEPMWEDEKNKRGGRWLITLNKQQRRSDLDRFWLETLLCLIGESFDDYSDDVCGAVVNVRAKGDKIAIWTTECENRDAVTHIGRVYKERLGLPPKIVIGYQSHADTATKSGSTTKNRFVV

[10] = molecular target: Induced myeloid leukemia cell differentiation protein Mcl-1 (Homo sapiens, UniProt Q07820); assay type: functional
Induced myeloid leukemia cell differentiation protein Mcl-1, sequence (Q07820 whole entry): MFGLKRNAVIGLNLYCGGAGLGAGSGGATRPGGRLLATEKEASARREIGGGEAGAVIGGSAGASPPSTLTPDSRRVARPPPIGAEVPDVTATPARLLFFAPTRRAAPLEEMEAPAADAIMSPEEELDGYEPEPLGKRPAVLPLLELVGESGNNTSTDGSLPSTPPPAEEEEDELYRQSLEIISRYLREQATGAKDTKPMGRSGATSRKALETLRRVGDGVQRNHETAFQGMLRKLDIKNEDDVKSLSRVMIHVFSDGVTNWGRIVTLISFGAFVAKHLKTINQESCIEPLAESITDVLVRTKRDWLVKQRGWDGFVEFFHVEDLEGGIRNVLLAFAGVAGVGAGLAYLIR

[11] = viability of uninfected HEp-2 cells – cell-based, HTS, cytotoxicity control for RSV inhibitor project, dose response (AID 2410); assay type: functional; conditions: human respiratory syncytial virus
Coagulation factor XII = molecular target: T2, Coagulation factor XII (Homo sapiens, UniProt P00748); assay type: functional;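 also: activated factor XIIa alpha cleaving a fluorogenic AMC peptide substrate; inhibitor potency from loss of enzyme activity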
T2 sequence (P00748 whole entry): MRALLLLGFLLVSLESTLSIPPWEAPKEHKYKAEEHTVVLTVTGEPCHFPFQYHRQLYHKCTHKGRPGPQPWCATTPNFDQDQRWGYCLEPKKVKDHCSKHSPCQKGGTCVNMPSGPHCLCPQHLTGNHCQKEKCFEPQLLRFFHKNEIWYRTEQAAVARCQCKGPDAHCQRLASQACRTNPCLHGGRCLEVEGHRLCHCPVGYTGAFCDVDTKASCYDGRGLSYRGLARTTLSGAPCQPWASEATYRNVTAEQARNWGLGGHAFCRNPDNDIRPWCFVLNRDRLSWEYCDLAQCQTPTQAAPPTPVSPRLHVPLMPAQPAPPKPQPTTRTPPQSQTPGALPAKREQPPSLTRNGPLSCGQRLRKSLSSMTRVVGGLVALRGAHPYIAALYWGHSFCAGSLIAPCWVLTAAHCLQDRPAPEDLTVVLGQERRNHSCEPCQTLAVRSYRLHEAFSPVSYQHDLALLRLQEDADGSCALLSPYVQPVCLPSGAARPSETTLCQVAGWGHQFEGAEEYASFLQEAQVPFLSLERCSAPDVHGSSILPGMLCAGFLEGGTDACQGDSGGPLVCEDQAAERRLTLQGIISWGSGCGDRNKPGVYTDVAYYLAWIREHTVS

HT-1080 = test: HT1080 cell viability loss – fluorescence readout (AID 620); assay type: functional, cell-based; conditions: Homo sapiens
[12] = molecular target: T1, Luciferin 4-monooxygenase; test: Counter Screen for Luciferase-based Assay Positives. [Related pubchem assays: 620, 618, 411 ]
[13] = molecular target: T3, Short transient receptor potential channel 4 (Mus musculus, UniProt Q9QUQ5); test: block of DAMGO-driven TRPC4 calcium entry – cell-based, HEK293 TRPC4/mu-opioid, Fluo-4 calcium, dose response (AID 434942); assay type: functional;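 also: potency of inhibitors blocking the TRPC4 calcium response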
T3 sequence (Q9QUQ5 whole entry): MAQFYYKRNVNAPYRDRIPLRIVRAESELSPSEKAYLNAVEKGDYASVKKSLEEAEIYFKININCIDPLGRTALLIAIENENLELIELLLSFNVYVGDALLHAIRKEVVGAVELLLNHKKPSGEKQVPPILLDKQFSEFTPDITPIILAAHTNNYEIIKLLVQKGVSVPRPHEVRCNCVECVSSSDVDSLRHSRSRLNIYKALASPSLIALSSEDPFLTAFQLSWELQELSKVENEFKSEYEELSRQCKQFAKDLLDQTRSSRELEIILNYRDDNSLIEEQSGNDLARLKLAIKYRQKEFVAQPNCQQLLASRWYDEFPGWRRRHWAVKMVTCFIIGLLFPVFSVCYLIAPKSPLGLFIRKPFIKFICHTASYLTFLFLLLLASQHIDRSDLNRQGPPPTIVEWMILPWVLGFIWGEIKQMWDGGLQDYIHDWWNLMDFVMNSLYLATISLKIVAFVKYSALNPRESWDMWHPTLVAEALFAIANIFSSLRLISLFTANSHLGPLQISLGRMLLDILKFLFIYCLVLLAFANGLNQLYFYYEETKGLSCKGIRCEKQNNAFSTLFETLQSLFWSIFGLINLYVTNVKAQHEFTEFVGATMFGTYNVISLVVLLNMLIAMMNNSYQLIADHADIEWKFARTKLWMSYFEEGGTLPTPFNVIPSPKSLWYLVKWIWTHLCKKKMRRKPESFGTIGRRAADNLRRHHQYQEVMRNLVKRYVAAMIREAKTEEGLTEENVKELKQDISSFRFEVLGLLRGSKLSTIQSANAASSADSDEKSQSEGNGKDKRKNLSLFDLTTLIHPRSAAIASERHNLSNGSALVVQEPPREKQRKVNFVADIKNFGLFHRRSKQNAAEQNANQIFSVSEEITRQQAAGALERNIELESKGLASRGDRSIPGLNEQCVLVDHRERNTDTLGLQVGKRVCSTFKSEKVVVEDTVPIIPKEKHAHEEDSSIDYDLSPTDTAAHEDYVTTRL

[14] = molecular target: T4, Corticotropin-releasing factor receptor 2/Corticotropin-releasing factor-binding protein (Homo sapiens, UniProt P24387+Q13324); test: Dose Response confirmation of uHTS hits for small molecule antagonists of the CRF-binding protein and CRF-R2 receptor complex.; assay type: functional; conditions: read-out: IC50_Mean
T4 sequence (Q13324 whole entry): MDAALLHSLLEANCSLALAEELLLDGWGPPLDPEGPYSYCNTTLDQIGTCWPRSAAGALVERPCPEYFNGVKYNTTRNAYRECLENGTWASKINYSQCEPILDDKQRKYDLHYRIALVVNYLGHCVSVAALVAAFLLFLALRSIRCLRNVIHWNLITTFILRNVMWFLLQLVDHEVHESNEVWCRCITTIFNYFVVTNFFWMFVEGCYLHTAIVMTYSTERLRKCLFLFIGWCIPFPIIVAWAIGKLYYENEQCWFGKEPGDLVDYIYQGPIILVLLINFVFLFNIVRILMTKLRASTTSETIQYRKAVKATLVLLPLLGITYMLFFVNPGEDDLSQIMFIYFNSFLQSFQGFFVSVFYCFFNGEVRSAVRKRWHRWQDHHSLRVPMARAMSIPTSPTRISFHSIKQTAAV
T4 sequence (P24387 whole entry): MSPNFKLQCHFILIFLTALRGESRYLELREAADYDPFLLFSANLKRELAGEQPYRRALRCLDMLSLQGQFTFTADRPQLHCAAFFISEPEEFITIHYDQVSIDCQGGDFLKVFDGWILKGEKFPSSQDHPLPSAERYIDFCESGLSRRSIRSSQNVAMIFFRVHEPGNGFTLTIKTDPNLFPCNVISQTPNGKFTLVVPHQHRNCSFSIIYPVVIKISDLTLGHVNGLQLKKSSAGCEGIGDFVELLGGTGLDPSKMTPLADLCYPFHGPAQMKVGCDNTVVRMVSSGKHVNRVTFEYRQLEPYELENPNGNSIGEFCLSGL

[15] = molecular target: T4, Corticotropin-releasing factor receptor 2/Corticotropin-releasing factor-binding protein; test: activators of CRF receptor 2 with binding protein – uHTS hits, confirmation (AID 602473); assay type: functional; conditions: read-out: EC50_Mean
[16] = Dd2 malaria parasite growth inhibition potency – SYBR Green, dry powder samples, dose response (AID 1159566); assay type: functional, cell-based;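 also: potency for growth inhibition with lower SYBR green DNA signal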
[17] = growth inhibition of PfATP4-mutant resistant parasites – NITD609-resistant line, SYBR Green, dry powder, dose response (AID 1159571); assay type: functional, cell-based;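 also: parasites synchronized at ring stage by sorbitol before testing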
[18] = P. falciparum Dd2 growth inhibitors, dose response, SYBR Green, cherry-picked samples (AID 1159567); assay type: functional, cell-based
[19] = growth inhibition of yeast DHODH-expressing 3D7 parasites – SYBR Green, dry powder samples, dose response (AID 1159570); assay type: functional, cell-based;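 also: parasite growth measured after 72 hours of compound exposure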
[20] = molecular target: Glyceraldehyde-3-phosphate dehydrogenase (Homo sapiens, UniProt P04406)
Glyceraldehyde-3-phosphate dehydrogenase, sequence (P04406 whole entry): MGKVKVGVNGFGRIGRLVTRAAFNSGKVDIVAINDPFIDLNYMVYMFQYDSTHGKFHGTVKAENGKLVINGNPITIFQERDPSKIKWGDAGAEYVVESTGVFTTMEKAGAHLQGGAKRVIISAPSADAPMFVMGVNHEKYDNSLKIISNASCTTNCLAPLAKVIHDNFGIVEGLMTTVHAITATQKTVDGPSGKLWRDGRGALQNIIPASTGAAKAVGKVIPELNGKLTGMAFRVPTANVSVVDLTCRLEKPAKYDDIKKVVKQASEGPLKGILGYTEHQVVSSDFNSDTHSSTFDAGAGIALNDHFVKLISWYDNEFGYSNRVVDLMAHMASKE

[21] = HEK-293T cell viability reduction – luminescence, B-cell screen hits, cytotoxicity control for BCR NF-kB inhibitor project, dose response (AID 489021); assay type: functional, cell-based;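 also: HEK-293T cells carrying an NF-kB luciferase reporter; cells exposed to compound for about 14 hours before viability readout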
[22] = molecular target: T5, Heat shock factor protein 1 (Mus musculus, UniProt P38532); test: decrease of HSF1-responsive luciferase luminescence – cell-based, NIH3T3, dose retest, confirmation (AID 2382); assay type: functional;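 also: NIH3T3 fibroblasts with HSF1-driven luciferase reporter stressed by proteasome inhibitor MG132; luminescence from HSF1-driven luciferase expression after 8 hours of MG132 stress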
T5 sequence (P38532 whole entry): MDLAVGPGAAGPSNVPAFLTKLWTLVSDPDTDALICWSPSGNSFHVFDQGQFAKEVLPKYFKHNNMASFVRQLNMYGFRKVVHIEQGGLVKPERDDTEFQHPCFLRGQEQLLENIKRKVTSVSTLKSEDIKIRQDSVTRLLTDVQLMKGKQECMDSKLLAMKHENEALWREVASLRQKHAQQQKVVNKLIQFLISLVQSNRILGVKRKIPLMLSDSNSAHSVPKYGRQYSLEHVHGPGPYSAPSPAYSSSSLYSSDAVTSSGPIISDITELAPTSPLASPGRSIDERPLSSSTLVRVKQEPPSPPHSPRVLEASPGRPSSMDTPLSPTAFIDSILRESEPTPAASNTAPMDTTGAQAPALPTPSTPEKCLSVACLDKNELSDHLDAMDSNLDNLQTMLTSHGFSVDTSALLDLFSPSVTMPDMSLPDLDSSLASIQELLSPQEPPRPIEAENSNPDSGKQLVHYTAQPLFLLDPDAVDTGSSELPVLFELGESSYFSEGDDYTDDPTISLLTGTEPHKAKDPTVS

In the case of `COc1ccc(OC)c(-c2cc(C(=O)Nc3c(C)nn(Cc4ccc(Cl)cc4)c3C)no2)c1`, the EC50 [1] is reported as 13.6 µM (active), the AC50 [2] is reported as > 70 µM (inactive) and the EC50 [3] is reported as 19.5 µM (active). The EC50 [4] was 13.9 µM (active).

For `Cc1[nH]c(=S)c(C#N)c(C)c1CCC#N`, the IC50 [5] was 9.7 µM (active), the EC50 [6] was > 112 µM (not active) and the IC50 [7] was > 80 µM (inactive). The IC50 [8] was > 100 µM (inactive).

For `O=C1NC(c2ccc3c(c2)OCO3)Oc2ccccc21` (stereo not drawn), the IC50 [9] was > 64 µM (inactive).

In the case of `O=C(N/N=C/c1ccc(O)cc1)c1cccc(N/N=C/c2ccc(O)cc2)c1`, the IC50 [10] is reported as 6.06 µM (active).

In the case of `Cc1ccccc1CC1(CO)CCCN(Cc2c(C)nn(C)c2Cl)C1` (stereo not drawn), the IC50 (cells) is reported as 7.18 µM (active) and the CC50 [11] is reported as 49.4 µM (active).

With `C/C(=N\NC(=O)c1cccc(N/N=C(\C)c2ccccc2)c1)c1ccccc1` the IC50 (Coagulation factor XII) was > 50 µM (inactive).

For `CCNC(=O)C1=C(O)c2sccc2N(C)S1(=O)=O`, the IC50 [9] was 50 µM (inactive).

In the case of `CC(C)C(=O)Nc1ccc(-c2nc3cccnc3o2)cc1`, the EC50 (HT-1080) is reported as > 50 µM (not active) and the EC50 [12] is reported as < 0.2 µM (active).

In the case of `CCOC(=O)C1(Cc2cccc(OC)c2)CCN(Cc2cccn2-c2nccs2)CC1`, the IC50 (cells) is reported as 10.2 µM (active) and the CC50 [11] is reported as > 50 µM (active).

In the case of `Fc1cccc(-c2n[nH]c(=S)n2-c2ccccc2)c1`, the IC50 [5] is reported as 4.26 µM (active) and the IC50 [8] is reported as > 100 µM (inactive).

With `Cc1nn(-c2cccc(Cl)c2)c2nc(C(F)(F)F)[nH]c(=O)c12` the EC50 [13] was 3.35 µM (active), the IC50 [14] was 2.6 µM (active) and the EC50 [15] was > 53 µM (inactive).

With `C[C@@H]1CN([C@@H](C)CO)C(=O)c2cccc(NC(=O)c3ccc(-c4nccs4)cc3)c2O[C@H]1CN(C)Cc1ccc(Cl)c(Cl)c1` the AC50 [16] was 0.922 µM (active), the AC50 [17] was 0.692 µM (active) and the AC50 [18] was 1.7 µM (active). The AC50 [19] was 1.25 µM (active).

With `COCCn1c(-c2ccc(Cl)cc2Cl)nc2c(c(=O)c3ccccc3n2C)c1=O` the IC50 (cells) was > 50 µM (active).

For `O=C(Nc1cccc(S(=O)(=O)Nc2ccccc2F)c1)c1ccc2ccccc2n1`, the IC50 [5] was 15.6 µM (active) and the IC50 [8] was > 100 µM (inactive).

With `Cc1cc(C)nc(NC(=N)Nc2ccc(CC(=O)OC(C)C)cc2)n1` the AC50 [2] was 22.1 µM (active).

With `Cc1ccoc1C(=O)Nc1ccc(CC(=O)O)cc1` the EC50 (HT-1080) was > 50 µM (not active), the IC50 [20] was > 100 µM (not active) and the IC50 [21] was > 80 µM (inactive). For the same compound, the EC50 [12] was 1.12 µM (active).

With `CC1(C)Cc2ccccc2-c2n[nH]c(=S)n21` the IC50 [5] was 4.33 µM (active), the EC50 [22] was > 195 µM (not active) and the IC50 [8] was > 100 µM (inactive).
